From patent US20250268827A1, “COMBINED MEDICINAL DRUG INCLUDING LIPOSOME COMPOSITION ENCOMPASSING TOPOTECAN OR SALT THEREOF AND DNA DAMAGE REPAIR INHIBITOR” (FUJIFILM Corporation, priority 2022, published 2025)
Like-named read-outs stand apart in the source and are kept apart here.

How the values were obtained:
[1] = tested on: Capan-1 cells (human pancreatic cancer cell line) subcutaneous tumor; test: Drug efficacy in pancreatic cancer cell line (Capan-1) model, combined use of Lipo and olaparib (Test Example 1); format: in vivo, mouse Balb/cAJcl-nu/nu; conditions: same dosing as Table 1; relative to no-drug group; day 28
[2] = tested on: ES-2 (ovarian cancer cell line); test: In vitro cell proliferation inhibition test with isobologram analysis (Test Example 3), ES-2; format: cell-based; conditions: DNA damage repair inhibitor combined with Lipo, 3 days culture
Procedure: (§1) A Cell Counting Kit-8 (Dojindo Molecular Technologies. Inc.) was used for a living cell detection method, and the absorbance at 460 nm after 4 hours of reagent addition was measured with a microplate reader to obtain the IC50 value. [table] As various DNA damage repair inhibitors to be used in combination with the liposome composition, the following DNA damage repair inhibitors were used; ceralasertib ([…] Biotechnology, Inc.) as an ATR inhibitor, prexasertib ([…] Biotechnology, Inc.) as a CHK1/2 inhibitor, […] Biotechnology, Inc.) as a DNA-PK inhibitor, […] Biotechnology, Inc.) as an ATM inhibitor, ZN-c3 ([…] Biotechnology, Inc.) as a WEE1 inhibitor, and olaparib ([…] Biotechnology, Inc.) as a PARP inhibitor. […] [table] […] First, the IC50 value of Lipo alone and the IC50 value of various DNA damage repair inhibitors alone were determined. Next, various DNA damage repair inhibitors were used in combination at each of the set concentration points of Lipo, and the IC50 value of the DNA damage repair inhibitors was determined. A value obtained by […] was denoted as “Lipo FIC”, and a value obtained by dividing this value by the IC50 value of the various DNA damage repair inhibitors was denoted as “various DNA damage repair inhibitor FIC”, and then these two values were recorded as one set of values. […] In addition, Lipo was used in combination at each of the concentration points of the various DNA damage repair inhibitors which were set in the same manner, and the IC50 value of the Lipo was determined. A value obtained by dividing this value by the IC50 value of Lipo alone was denoted as “Lipo FIC”, and a value obtained by dividing this value by the IC50 value of the various DNA damage repair inhibitors was denoted as “various DNA damage repair inhibitor FIC”, and then these two values were recorded as one set of values. […] As shown in Table 8 and Table 9, an isobologram was obtained by plotting each set of these values on the graph of various DNA damage repair inhibitors FIC v.s. Lipo FIC. […] A case of being plotted to the right indicates an “antagonistic effect”, which is regarded as an inappropriate effect of combined use. FIG. 5 to FIG. 21 show the results.

[3] = tested on: DMS114 (lung cancer cell line); test: In vitro cell proliferation inhibition test with isobologram analysis (Test Example 3), DMS 114; format: cell-based; conditions: DNA damage repair inhibitor combined with Lipo, 5 days culture
Procedure: as §1

[4] = tested on: Capan-1 (pancreatic cancer cell line); test: In vitro cell proliferation inhibition test with isobologram analysis (Test Example 3), Capan-1; format: cell-based, human; conditions: for effect of combined use with Lipo in isobologram analysis / DNA damage repair inhibitor (Ceralasertib) FIC: Capan-1; for effect of combined use with Lipo in isobologram analysis: DNA damage repair inhibitor combined with Lipo, 6 days culture; for IC50: Homo sapiens, CAPAN-1, Capan-1, read-out: IC50 value (nmol/L) of DNA damage repair inhibitor (Ceralasertib) at each of concentration points of Lipo
Procedure: as §1

## CC[C@@]1(O)C(=O)OCc2c1cc1n(c2=O)Cc2cc3c(CN(C)C)c(O)ccc3nc2-1 [Topotecan]
[1]
  Drug efficacy (tumor diameter) 28 days after administration, proportion to Comparative Example 1: (80%)
mouse, in vivo
  Safety (body weight) 28 days after administration, proportion to Comparative Example 1: (96%)

## COc1cc2ncc3c(c2cc1-c1cn(C)nc1C)n(-c1c(F)cncc1OC)c(=O)n3C [Example M4076]
[2]
  effect of combined use with Lipo in isobologram analysis: synergistic effect
[3]
  effect of combined use with Lipo in isobologram analysis: synergistic effect
[4]
  effect of combined use with Lipo in isobologram analysis: additive effect

## C[C@@H]1COCCN1c1cc(C2([S@](C)(=N)=O)CC2)nc(-c2cc[nH]c3nccc2-3)n1 [Ceralasertib]
[2]
  effect of combined use with Lipo in isobologram analysis: synergistic effect
[3]
  effect of combined use with Lipo in isobologram analysis: synergistic effect
[4]
  effect of combined use with Lipo in isobologram analysis: synergistic effect
[4]; Table 8, Lipo 0.0 nmol/L
  DNA damage repair inhibitor (Ceralasertib) FIC: 1.0
[4]; Table 8, Lipo 0.14 nmol/L
  DNA damage repair inhibitor (Ceralasertib) FIC: 0.7
[4]; Table 8, Lipo 0.41 nmol/L
  DNA damage repair inhibitor (Ceralasertib) FIC: 0.9
[4]; Table 8, Lipo 1.23 nmol/L
  DNA damage repair inhibitor (Ceralasertib) FIC: 0.9
[4]; Table 8, Lipo 3.7 nmol/L
  DNA damage repair inhibitor (Ceralasertib) FIC: 0.2
[4]; Table 8, Lipo 11.1 nmol/L
  DNA damage repair inhibitor (Ceralasertib) FIC: 0.02
[4]; Table 9, ceralasertib 0.0 nmol/L
  DNA damage repair inhibitor (Ceralasertib) FIC: 0.0
[4]; Table 9, ceralasertib 4.57 nmol/L with Lipo
  DNA damage repair inhibitor (Ceralasertib) FIC: 0.01
[4]; Table 9, ceralasertib 13.7 nmol/L with Lipo
  DNA damage repair inhibitor (Ceralasertib) FIC: 0.02
[4]; Table 9, ceralasertib 41.2 nmol/L with Lipo
  DNA damage repair inhibitor (Ceralasertib) FIC: 0.05
[4]; Table 9, ceralasertib 123 nmol/L with Lipo
  DNA damage repair inhibitor (Ceralasertib) FIC: 0.1
[4]; Table 9, ceralasertib 370 nmol/L with Lipo
  DNA damage repair inhibitor (Ceralasertib) FIC: 0.4
[4]; Lipo 0.0 nmol/L (ceralasertib alone)
  IC50: 893 nmol/L
[4]; combined with Lipo 0.14 nmol/L
  IC50: 634 nmol/L
[4]; combined with Lipo 0.41 nmol/L
  IC50: 809 nmol/L
[4]; combined with Lipo 1.23 nmol/L
  IC50: 798 nmol/L
[4]; combined with Lipo 3.7 nmol/L
  IC50: 181 nmol/L
[4]; combined with Lipo 11.1 nmol/L
  IC50: 14.9 nmol/L

## O=C(c1cc(Cc2n[nH]c(=O)c3ccccc23)ccc1F)N1CCN(C(=O)C2CC2)CC1 [Olaparib]
[2]
  effect of combined use with Lipo in isobologram analysis: synergistic effect
[3]
  effect of combined use with Lipo in isobologram analysis: synergistic effect
[1]
  Drug efficacy (tumor diameter) 28 days after administration, proportion to Comparative Example 1: (80%)
[4]
  effect of combined use with Lipo in isobologram analysis: synergistic effect
Capan-1 tumor-bearing female nude mice, Lipo 0.5 mg/kg or topotecan 5 mg/kg i.v. weekly x 4, olaparib 50 mg/kg i.p. daily x 6 days/week x 4 weeks, day 28
  Safety (body weight: g) 28 days after administration: 103 g
Same dosing as Table 1, relative to no-drug group, day 28
  Safety (body weight) 28 days after administration, proportion to Comparative Example 1: (97%)

## COc1cccc(OCCCN)c1-c1cc(Nc2cnc(C#N)cn2)n[nH]1 [prexasertib]
[2]
  effect of combined use with Lipo in isobologram analysis: synergistic effect
[3]
  effect of combined use with Lipo in isobologram analysis: synergistic effect

## COc1ccc([C@@H](O)c2cc(-c3ncnc4cc(N5CCOCC5)ccc34)c(F)cc2Cl)nn1 [Example M3814]
[2]
  effect of combined use with Lipo in isobologram analysis: additive effect
[3]
  effect of combined use with Lipo in isobologram analysis: synergistic effect
[4]
  effect of combined use with Lipo in isobologram analysis: synergistic effect

## C=CCn1c(=O)c2cnc(Nc3ccc(N4CCN(C)CC4)cc3)nc2n1-c1ccc2c(n1)[C@@](O)(CC)CC2 [ZN-c3]
[2]
  effect of combined use with Lipo in isobologram analysis: synergistic effect
[3]
  effect of combined use with Lipo in isobologram analysis: additive effect
[4]
  effect of combined use with Lipo in isobologram analysis: additive effect
